Laboratory results published in the supplement of paper PMC11551840.

Assays:
Assay in all cases: IC50 (cell viability, 72 h) (ln(µM))
ORL-115 = tested on: ORL-115
Procedure: (§1)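 Discovery screen of OSCC cell lines in 1,536-well plates. Cells were treated 24 h after seeding with 7 concentrations spanning a 1,000-fold half-log range for 72 h, and viability was read by CellTiter-Glo 2.0 and normalised to DMSO (1) and medium-only (0) controls. IC50 comes from a two-parameter logistic nonlinear mixed-effects fit and is reported as natural log of IC50 in µM.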

ORL-153 = tested on: ORL-153
Procedure: as §1

ORL-150 = tested on: ORL-150
Procedure: as §1

ORL-156 = tested on: ORL-156
Procedure: as §1

ORL-48 = tested on: ORL-48
Procedure: as §1

ORL-136 = tested on: ORL-136
Procedure: as §1

ORL-188 = tested on: ORL-188
Procedure: as §1

ORL-207 = tested on: ORL-207
Procedure: as §1

ORL-204 = tested on: ORL-204
Procedure: as §1

ORL-195 = tested on: ORL-195
Procedure: as §1

ORL-215 = tested on: ORL-215
Procedure: as §1

SAS = tested on: SAS
Procedure: as §1

HO-1-u-1 = tested on: HO-1-u-1
Procedure: as §1

ORL-166 = tested on: ORL-166
Procedure: as §1

BICR10 = tested on: BICR10
Procedure: as §1

ORL-174 = tested on: ORL-174
Procedure: as §1

PE-CA-PJ15 = tested on: PE-CA-PJ15
Procedure: as §1

ORL-214 = tested on: ORL-214
Procedure: as §1

SCC-9 = tested on: SCC-9
Procedure: as §1

HSC-4 = tested on: HSC-4
Procedure: as §1

HSC-2 = tested on: HSC-2
Procedure: as §1

Compound | IC50 (ln) (ORL-115) | IC50 (ln) (ORL-153) | IC50 (ln) (ORL-150) | IC50 (ln) (ORL-156) | IC50 (ln) (ORL-48) | IC50 (ln) (ORL-136) | IC50 (ln) (ORL-188) | IC50 (ln) (ORL-207) | IC50 (ln) (ORL-204) | IC50 (ln) (ORL-195) | IC50 (ln) (ORL-215) | IC50 (ln) (SAS) | IC50 (ln) (HO-1-u-1) | IC50 (ln) (ORL-166) | IC50 (ln) (BICR10) | IC50 (ln) (ORL-174) | IC50 (ln) (PE-CA-PJ15) | IC50 (ln) (ORL-214) | IC50 (ln) (SCC-9) | IC50 (ln) (HSC-4) | IC50 (ln) (HSC-2)
Cc1[nH]c2ccccc2c1CCNCc1ccc(/C=C/C(=O)NO)cc1 [Panobinostat] | 0.481 | -2.26 | -1.77 | -2.16 | -2.37 | -0.667 | -2 | -2.37 | -1.01 | -1.26 | -1.39 | -1.8 | -1.92 | -2.65 | -0.934 | -2.11 | -0.846 | -1.97 | 0.43 | -0.0634 | -1.23
CO[C@H]1C[C@@H]2CC[C@@H](C)[C@@](O)(O2)C(=O)C(=O)N2CCCC[C@H]2C(=O)O[C@H]([C@H](C)C[C@@H]2CC[C@@H](O)[C@H](OC)C2)CC(=O)[C@H](C)/C=C(\C)[C@@H](O)[C@@H](OC)C(=O)[C@H](C)C[C@H](C)/C=C/C=C/C=C/1C [Rapamycin] | -0.458 | -2.68 | -1.89 | -3.47 | -2.12 | -2.47 | -2.93 | -3.35 | -1.41 | -2.97 | -0.198 | -0.895 | -2.71 | -2.82 | -2.25 | -3.89 | -0.663 | -4.26 | -0.629 | -1.49 | -2.87
C/C=C1\NC(=O)[C@H]2CSSCC/C=C/[C@H](CC(=O)N[C@H](C(C)C)C(=O)N2)OC(=O)[C@H](C(C)C)NC1=O [Romidepsin] | -3.74 | -5.8 | -5.04 | -4.55 | -5.62 | -4.02 | -5.03 | -4.74 | -4.13 | -3.85 | -4.27 | -4.87 | -5.24 | -5.72 | -4.05 | -5.44 | -3.12 | -3.64 | -3.68 | -2.03 | -4.88
CCc1c2c(nc3ccc(O)cc13)-c1cc3c(c(=O)n1C2)COC(=O)[C@]3(O)CC [SN-38] | -1.9 | -4.49 | -3.32 | -2.97 | -2.86 | -0.854 | -4.81 | -5.13 | -5 | -2.3 | -3.53 | -5.93 | -1.5 | -3.75 | -1.02 | -3.86 | -2.9 | -5.1 | -0.268 | -4.28 | -5.53
COCC[n+]1c2c(n(Cc3cnccn3)c1C)C(=O)c1ccccc1C2=O [Sepantronium bromide] | -1.33 | -5.11 | -4.45 | -6.01 | -6.01 | -6.45 | -4.09 | -5.9 | -3.1 | -2.96 | -3.91 | -6.78 | -3.53 | -2.05 | -2.2 | -4.12 | -4.17 | -5.54 | -6.15 | -4.35 | -5.94
CN[C@@H]1C[C@H]2O[C@@](C)([C@@H]1OC)n1c3ccccc3c3c4c(c5c6ccccc6n2c5c31)C(=O)NC4 [Staurosporine] | -2.54 | -5.03 | -2.55 | -3.75 | -3.62 | -1.49 | -4.74 | -4.38 | -2.94 | -2.23 | -2.53 | -1.77 | -3.13 | -4.99 | -2.87 | -4.98 | -1.61 | -4.45 | -1.81 | -2.01 | -3.4
CN(C)C/C=C/C(=O)Nc1ccc(C(=O)Nc2cccc(Nc3ncc(Cl)c(-c4c[nH]c5ccccc45)n3)c2)cc1 [THZ1] | -1.28 | -2.01 | -1.93 | -2.4 | -2.1 | -0.297 | -2.18 | -1.93 | -1.9 | -2.48 | -2.18 | -1.01 | -2.66 | -2.72 | -1.1 | -2.27 | -1.3 | -2.58 | -0.456 | -0.322 | -2.07
CC[C@@]1(O)C(=O)OCc2c1cc1n(c2=O)Cc2cc3c(CN(C)C)c(O)ccc3nc2-1 [Topotecan] | -0.116 | -1.49 | -1.36 | -0.763 | -0.589 | 1.32 | -2.17 | -1.86 | -1.8 | -0.561 | -0.991 | -2.78 | -0.253 | -1.82 | -0.563 | -1.41 | -0.416 | -2.24 | 1.79 | -1.66 | -2.93
CC[C@]1(O)C[C@@H]2CN(CCc3c([nH]c4ccccc34)[C@@](C(=O)OC)(c3cc4c(cc3OC)N(C)[C@H]3[C@@](O)(C(=O)OC)[C@H](OC(C)=O)[C@]5(CC)C=CCN6CC[C@]43[C@@H]65)C2)C1 [Vinblastine] | -3.39 | -5.08 | -7.11 | -5.51 | -4.28 | -0.44 | -4.52 | -6.16 | -1.25 | -3.12 | -6 | -2.06 | 0.0626 | -5.26 | -5.52 | -3.94 | -2.73 | -5.86 | -1.75 | 0.489 | -5.8
CCC1=C[C@@H]2CN(C1)Cc1c([nH]c3ccccc13)[C@@](C(=O)OC)(c1cc3c(cc1OC)N(C)[C@H]1[C@@](O)(C(=O)OC)[C@H](OC(C)=O)[C@]4(CC)C=CCN5CC[C@]31[C@@H]54)C2 [Vinorelbine] | -3.17 | -4.32 | -4.87 | -4.75 | -4.11 | -0.871 | -4.3 | -4.86 | -2.86 | -3.19 | -4.43 | -1.52 | -2.27 | -3.98 | -3.91 | -4 | -2.05 | -3.96 | -2.4 | -1.06 | -4.57
CC[C@@H]1C(=O)N(C)c2cnc(Nc3ccc(C(=O)N[C@H]4CC[C@H](N5CCN(CC6CC6)CC5)CC4)cc3OC)nc2N1C(C)C [Volasertib] | -2.17 | -2.22 | -3.61 | -2.61 | -1.36 | 2.12 | -2.92 | -2.9 | -0.0575 | -1.33 | -2.84 | -0.561 | -1.37 | -2.71 | -2.43 | -2.1 | 0.264 | -1.65 | -0.541 | -0.173 | -2.15
